From patent US12390490B2, “Sphingolipid-based selenium compounds, methods for their preparation, and pharmaceutical uses thereof, including as antitumor agents” (MUSC FOUNDATION FOR RESEARCH DEVELOPMENT, priority 2019, dated 2025)
“Also recorded” adds a separate entry of the source.

Legend:
HNSCC-1A cells [1] = assay: Confocal immunofluorescence, colocalization of ceramide and Tom20; type: cell-based, human; details: 1 μM or 4 μM, 1.5 hours, compared to vehicle and LCL-461
HNSCC-1A cells [2] = assay: ATP levels (lethal mitophagy); type: cell-based, human; details: 4 μM, 48 hours
Method: FIG. 7 is a graph showing adenosine triphosphate (ATP) activity in head and neck squamous cell carcinoma (HNSCC-1A) cells incubated with 4 micromolar (μM) concentrations of a pyridinium-substituted ceramide-based compound (LCL-461), the selenite conjugated salt of a pyridinium-substituted ceramide-based compound (LCL-768), or vehicle for 48 hours. ATP levels in the samples were measured, and all samples were normalized to a standard curve and then to vehicle activity.

HNSCC-1A cells [3] = assay: ACO2 levels by Western blotting (lethal mitophagy); type: cell-based, human; details: 4 μM, 48 hours
Method: FIG. 6 is a graph showing levels of aconitase 2 (ACO2) (reported as normalized cumulative pixel intensity) in head and neck squamous cell carcinoma (HNSCC-1A) cells incubated with 4 micromolar (μM) concentrations of a pyridinium-substituted ceramide-based compound (LCL-461), the selenite conjugated salt of a pyridinium-substituted ceramide-based compound (LCL-768), or vehicle for 48 hours. ACO2 levels were measured via Western blotting. Image-processing software was used to quantify the band intensity from the blots.

HNSCC-1A cells [4] = assay: LC3B-II levels by Western blotting (autophagy); type: cell-based, human; details: 4 μM, 1.5 hours
Method: LC3B-II levels were measured via Western blotting. Image-processing software was used to quantify the band intensity from the blots.
(§1) Cellular lysates in radioimmunoprecipitation assay (RIPA) buffer containing a protease inhibitor cocktail (Sigma-Aldrich, St. Louis, Missouri, United States of America) were normalized by the total protein level and analyzed by sodium dodecyl sulfate-polyacrylamide gel electrophoresis (SDS-PAGE) and immunoblotting with corresponding antibodies. For immunoprecipitation, precleared cytosolic fractions were incubated overnight with 2 μg of corresponding antibodies at 4° C., followed by 1-hour incubation with Protein A/G Agarose (Santa Cruz Biotechnology, Inc., Dallas, Texas, United States of America) (50 μl of a 50% slurry). Resin was washed three to five times, and pulled-down proteins were analyzed by SDS-PAGE and Western blotting with corresponding antibodies.

HNSCC-1A cells [5] = assay: Cell death / MTT cell viability assay; type: cell-based, human
[6] = test system: murine glioblastoma (GL261) cells; details: 5 μM, 24 hour treatment
[7] = test system: orthotopic GB U118-xenograft-derived tumor; assay: Orthotopic GB U118 xenograft in brains of SCID mice; type: in vivo; details: 1 mg/kg/day for 14 days, female SCID mice
HNSCC-IA cells = assay: Confocal immunofluorescence, colocalization of CerS1 and mitochondrial protein Tom20; type: cell-based, human; details: 1 μM, 3 hours
Method: FIG. 3A is a series of confocal microscopy images of cells treated with 1 micromolar (1 μM) concentrations of a pyridinium-substituted ceramide-based selenium conjugated compound (LCL-768) or vehicle for 3 hours and labeled for Ceramide Synthase 1 (CerS1; top row), mitochondria (middle row) or both (bottom row).
UM-SCC-22A (squamous carcinoma) cells (50,000 per well) were plated on glass coverslips in a six-well plate for 18 hours. Cells were fixed and permeabilized using 4% paraformaldehyde (20 min) and 0.1% Triton X-100 in 1× phosphate-buffered saline (PBS) (pH 7.4) for 10 min. The cells were then blocked with 1% bovine serum albumin (BSA)/PBS (pH 7.4) for 1 hour. […] Immunofluorescence was performed using a Leica TCS SP2 AOBS confocal microscope (Leica Microsystems, Wetzler, Germany), an Olympus FV10i microscope (Olympus Corporation, Tokyo, Japan) with 543- and 488-nm channels for visualizing green and red fluorescence, or a Zeiss LSM 880 NLO Quasar confocal/multiphoton microscope with a Fast Airyscan super-resolution detector (Carl Zeiss, AG, Oberkochen, Germany). […] At least three random fields were selected for image quantification.

UM-SCC-1A-xenografts = test system: UM-SCC-1A-xenografts
Excerpt: Tumor volume (cubic millimeters (mm^3)) is provided for both […] mice and mice treated with vehicle as a control.

43RG32 cells = assay: Western blotting of mitophagy markers, 43RG32 cells; type: cell-based, human
Method: (§2) FIG. 10 is a composite gel image of Western blot analysis of extracts from non-cancerous human astrocytes (HA), 43RG32 and U118 cells treated with 0 micromolar (0 μM) or 5 μM LCL-768. The effects of LCL-768 on LC3-II activation, aconitase 2 (ACO2) degradation, and dynamin-related GTPase (Drp1) dephosphorylation at […] were measured as markers of mitophagy (n=3).
(§3) 43RG32 and U118 glioblastoma cells were treated with (+) or without (−) 5 micromolar (5 μM) LCL-768 and with (+) or without (−) the Drp1 inhibitor Mdivi-1. Actin was used as a loading control (n=3).
as §1

[8] = test system: normal human astrocyte (HA) cells; assay: MTT cell viability, normal human astrocytes; type: cell-based; details: 5 μM, 24 hour treatment
HNSCC organoids [9] = details: ex vivo treatment, MALDI-Imaging
Excerpt: (§4) To validate the clinical relevance of the activation of mitophagy, 2D organoids^4 were developed using tumor tissues obtained from a patient with HNSCC. […] The co-localization of GM130/Calnexin was used as a control.

[10] = Maximum tolerated dose in SCID mice; type: in vivo
human glioblastoma cells = details: 5 μM, 24 hour treatment, compared to LCL-461 or sodium selenite
HNSCC organoids [11] = assay: Ex vivo 2D HNSCC patient organoids, CerS1/Tom20 co-localization (mitophagy); type: cell-based, human; details: ex vivo treatment
Excerpt: FIG. 14A is a series of microscopy images showing the H&E staining (top row) and fluorescence imaging of the co-localization of translocase of outer mitochondrial membrane 20 (Tom20) and CerS1 (as a measure of mitophagy, middle row) in two-dimensional (2D) organoids developed from a patient with head and neck squamous cell carcinoma (HNSCC) in response to treatment with vehicle, LCL-768, sodium selenite (SoSe), rapamycin, or cisplatin ex vivo. Co-localization of cis-Golgi matrix protein 130 kDa (GM130) and Calnexin was used as a negative control (bottom row).
FIG. 14B is a graph showing the quantification of colocalization of Tom20 and CerS1 from the treated two-dimensional (2D) organoids described for FIG. 14A.
as §4

UM-SCC-1A cells [12] = assay: Subcellular accumulation by differential centrifugation and mass spectrometry; type: cell-based, human; details: 10 μM, 6-24 hours
Method: FIG. 13D is a graph showing the subcellular accumulation of LCL-768 (10 micromolar (μM)) after 0, 3, 6, 9, or 24 hours in the nucleus, mitochondria and cytoplasm of human head and neck squamous cell carcinoma (HNSCC) cells (UM-SCC-1A cells) as measured by mass spectrometry/lipidomics after differential centrifugation.
The effects of LCL-768 on mitophagy induction in UM-SCC-IA cells transfected stably with the shRNA against LC3B (shLC3) was studied and compared to controls (UM-SCC-1A cells transfected with a control shRNA, shSCR). […] The subcellular accumulation of LCL-768 was studied in the same cells. Nucleus, mitochondria and cytoplasm in LCL-768-treated cells were isolated by differential centrifugation and LCL-768 accumulation was measured by mass spectrometry. […] Thus, these studies further support mitochondrial accumulation and efficacy of LCL-768 in inducing mitophagy in UM-SCC-1A cells.

normal murine astrocytes = assay: MTT cell viability, normal murine astrocytes; type: cell-based; details: 5 μM, 24 hour treatment
[13] = test system: non-cancerous adjacent tissue organoids; assay: Ex vivo non-cancerous adjacent tissue organoids, mitophagy; type: cell-based, human; details: ex vivo treatment, same patient
Excerpt: as §4

U118 cells = assay: Western blotting of mitophagy markers, U118 cells; type: cell-based, human
Method: as §2, §3, §1

UM-SCC-1A cells [14] = assay: CYTO-ID mitophagy detection in UM-SCC-1A cells with shSCR or shLC3; type: cell-based, human
[15] = test system: non-cancerous human astrocytes (HA); details: 5 μM
Method: as §2, §1

HNSCC-1A cells [16] = details: 1 and 2.5 μM, live HNSCC-1A cells

## CCCCCCCCCCCCCCCCCC(=O)N[C@@H](CO)[C@H](O)/C=C/CCCCCCCCC[n+]1ccccc1.[Br-] [LCL-461, D-erythro-2-N-octadecanoyl-14-(1′-pyridinium)-sphingosine bromide, reference compound]
HNSCC-1A cells [1]
  colocalization of ceramide and Tom20 (selenite-stress response): does not cause a strong selenite-stress response
HNSCC-1A cells [2]
  levels of ATP compared to vehicle (lethal mitophagy): decreased levels
HNSCC-1A cells [3]
  levels of ACO2 compared to vehicle (lethal mitophagy): decreased levels
HNSCC-1A cells [4]
  LC3B-II levels (autophagy): increased LC3B-II levels
HNSCC-1A cells [5]; Homo sapiens, 24 hours
  IC50: ~10 µM
HNSCC-1A cells [5]; Homo sapiens, 48 hours
  IC50: ~4 µM

## CCCCCCCCCCCCCCCCCC(=O)N[C@@H](CO)[C@H](O)/C=C/CCCCCCCCC[n+]1ccccc1.CCCCCCCCCCCCCCCCCC(=O)N[C@@H](CO)[C@H](O)/C=C/CCCCCCCCC[n+]1ccccc1.O=[Se]([O-])[O-] [LCL-768, D-erythro-14-(1′-pyridinium)-N-octadecanoyl-sphingosine selenite]
[6]
  autophagic cell death in mouse glioblastoma cells: induced autophagic cell death in mouse glioblastoma cells at a higher level than either LCL-461 or sodium selenite
HNSCC-1A cells [1]
  colocalization of ceramide and Tom20 (selenite-stress response): increased colocalization
[7]; osmotic pump into brain tumor
  tumor growth in the brain (MRI) compared to controls: remarkably reduced tumor growth
[7]; osmotic pump, vs vehicle
  increase of survival post-treatment: about 10 days
HNSCC-IA cells
  colocalization of CerS1 and mitochondrial protein Tom20: significant increase
UM-SCC-1A-xenografts; 10 mg/kg intraperitoneal every other day, 21 days, SCID mice
  tumor growth compared to vehicle-treated mice: inhibited tumor growth significantly
UM-SCC-1A-xenografts; day 21, Western blotting
  mitophagy in xenograft-derived tumors (ACO2, P-S637 Drp1, S-NO-Drp1): induction of mitophagy
UM-SCC-1A-xenografts; day 21, mass spectrometry
  accumulation in tumor vs adjacent non-tumorigenic tissues: higher tumor accumulation
HNSCC-1A cells [2]
  levels of ATP compared to vehicle (lethal mitophagy): decreased levels
43RG32 cells; 5 μM
  ACO2 degradation (mitophagy): induced
  LC-3B-II activation (autophagy marker): induced
[8]
  cell death in human normal astrocytes: not induced
HNSCC organoids [9]
  endogenous C24-ceramide compared to controls: decreased
[10]
  maximum tolerated dose (MTD): 10 mg/kg
HNSCC-1A cells [3]
  levels of ACO2 compared to vehicle (lethal mitophagy): decreased levels
Human glioblastoma cells
  autophagic cell death in human glioblastoma cells: induced autophagic cell death
HNSCC organoids [11]
  mitophagy (co-localization of CerS1 and Tom20) compared to vehicle-treated controls: induced mitophagy
UM-SCC-1A cells [12]
  subcellular accumulation (nucleus, mitochondria, cytoplasm): largely accumulated in the mitochondria
Normal murine astrocytes
  cell death in mouse normal astrocytes: not induced
[13]
  mitophagy induction in non-cancerous adjacent tissue organoids: did not affect mitophagy induction
U118 cells; 5 μM
  ACO2 degradation (mitophagy): induced
  LC-3B-II activation (autophagy marker): induced
HNSCC-1A cells [4]
  LC3B-II levels (autophagy): increased LC3B-II levels
UM-SCC-1A cells [14]; 10 μM, 6, 9 and 24 hours, UM-SCC-1A shSCR
  mitophagy induction in shSCR-controls: highly induced mitophagy
UM-SCC-1A cells [14]; 10 μM, UM-SCC-1A shLC3
  mitophagy induction after knockdown of LC3: almost completely prevented
[15]; HA cells
  ACO2 degradation (mitophagy): not
  LC-3B-II activation (autophagy marker): not
[15]; as stated in legend of FIG. 10
  mitophagy (LC3-II activation, ACO2 degradation, Drp1 dephosphorylation as markers): induces mitophagy
HNSCC-1A cells [16]
  time of exposure at which mitophagy is occurring: ≤ 90 min
HNSCC-1A cells [5]; 24 hours
  IC50: ~10 µM
HNSCC-1A cells [5]; 48 hours
  IC50: ~4 µM

## COc1cc(-n2c(=S)[nH]c3ccccc3c2=O)c(Cl)cc1Cl [Mdivi-1, reference compound]
43RG32 cells; with 5 μM LCL-768
  effect of Drp1 inhibition on LCL-768-mediated ACO2 degradation / mitophagy: almost completely prevented; also recorded: prevents
U118 cells; with 5 μM LCL-768
  effect of Drp1 inhibition on LCL-768-mediated ACO2 degradation / mitophagy: almost completely prevented; also recorded: prevents

## N.N.[Cl][Pt][Cl] [cisplatin, reference compound]
HNSCC organoids [11]
  mitophagy (co-localization of CerS1 and Tom20) compared to vehicle-treated controls: induced mitophagy
[13]
  mitophagy induction in non-cancerous adjacent tissue organoids: did not affect mitophagy induction

## O=[Se](O)O [sodium selenite, reference compound]
[8]
  cell death in human normal astrocytes: not induced
Normal murine astrocytes
  cell death in mouse normal astrocytes: not induced
